Each molecule was assayed against T1, IL-17A/A (Homo sapiens, UniProt Q16552) (assay: IL-17A/A HEK-Blue Cell Assay). Details: IL-17A/A inhibition, HEK-Blue IL-17A reporter cell line, SEAP readout at A630, incubated for 20 hours.
T1 construct: purchased Genscript Z03228
T1 sequence (Q16552 24-155): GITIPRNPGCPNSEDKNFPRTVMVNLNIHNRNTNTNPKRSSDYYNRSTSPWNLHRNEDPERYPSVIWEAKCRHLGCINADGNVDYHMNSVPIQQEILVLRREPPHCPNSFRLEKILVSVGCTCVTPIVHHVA
Format: cell-based
Method: Example 3: IL-17A/A HEK-Blue Cell Assay
The HEK-Blue IL-17A reporter cell line (Fisher #NC1408637) was used for cell-based IL-17A/A inhibition assays. Cells were grown and prepared for assays according to the manufacturer's instructions. This cell line consists of HEK 293 cells that were designed to expressed IL-17RA, IL-17RC, and the ActI adapter molecule, the combination of which, when stimulated by IL-17A/A activates a NFκB promoter and drives expression of a recombinant Secreted Alkaline Phosphatase (SEAP) gene protein. Media from the cells is then added to a development reagent (Quanti-Blue Substrate, Fisher #NC9711613), and read at A630.
Compounds were titrated in DMSO, with a top final compound concentration of 10 μM, 1 uM, or 0.3 μM, and added to the cells immediately before adding IL-17A/A (Genscript #Z03228). The cells, compound, and IL-17A/A were then incubated for 20 hours before media was removed for SEAP analysis. The resulting inhibition curve was then analyzed using Graphpad Prism 7.0, and IC50 values were determined using a 4-parameter nonlinear fit. DMSO was added to a universal final concentration of 0.1% to optimize background.

With `CCn1nccc1C(=O)N[C@H](c1nc2cc(CC3CC(C(F)(F)F)NC3=O)cc(F)c2[nH]1)C(C1CC1)C1CC1` (stereo partly shown) [Compound 33] as the molecule, how does the IC50 read?
Its IC50 is 0.1 to 1 µM.

With `CCn1nccc1C(=O)N[C@H](c1nc2cc(CC3CCC(C(F)(F)F)NC3=O)cc(F)c2[nH]1)C(C1CC1)C1CC1` (stereo partly shown) [Compound 52] as the molecule, how does the IC50 read?
The IC50 was 0.1 to 1 µM.

How did the IC50 turn out when `CCn1nccc1C(=O)N[C@H](c1nc2cc(CC3CCC(C(F)(F)F)NC3=O)cc(F)c2[nH]1)C(C1CC1)C1CC1` (stereo partly shown) [Compound 53] was run?
The IC50 was 0.1 to 1 µM.

For `CCn1nccc1C(=O)N[C@H](c1nc2cc(C[C@@H]3C[C@H](C(F)(F)F)NC3=O)ccc2[nH]1)C(C1CC1)C1CC1` (single isomer, unassigned) [Compound 5], which IC50 is on record?
The IC50 was greater than 1 µM.

Which IC50 does the source give for `CCn1nccc1C(=O)N[C@H](c1nc2ccc(C(C)C3CCCNC3=O)cc2[nH]1)C(C1CC1)C1CC1` (stereo partly shown) [Compound 83] here?
The IC50 was greater than 1 µM.

With `CCn1nccc1C(=O)N[C@H](c1nc2ccc(C[C@H]3CCCNC3=O)cc2[nH]1)C(C1CC1)C1CC1` [Compound 35] as the molecule, how does the IC50 read?
Its IC50 is 0.1 to 1 µM.

With `CCn1nccc1C(=O)N[C@H](c1nc2cc(CC3CCC(C(F)(F)F)NC3=O)cc(F)c2[nH]1)C(C1CC1)C1CC1` (stereo partly shown) [Compound 54] as the molecule, how does the IC50 read?
Its IC50 is greater than 1 µM.

`CCn1nccc1C(=O)N[C@H](c1nc2c(F)c(C[C@@H]3CCNC3=O)ccc2[nH]1)C1CCC(F)(F)CC1` [Compound 12] was tested. Which IC50 did it give?
Its IC50 is greater than 1 µM.

For `CCn1nccc1C(=O)N[C@H](c1nc2ccc(C[C@H]3CCNC3=O)cc2[nH]1)[C@H](c1ccccc1Cl)C(C)C` [Compound 62], which IC50 is on record?
The IC50 was greater than 1 µM.

Which IC50 does the source give for `CCn1nccc1C(=O)N[C@H](c1nc2cc(C(C)C3CCNC3=O)ccc2[nH]1)C(C1CC1)C1CC1` (stereo partly shown) [Compound 22] here?
The IC50 was greater than 1 µM.

With `O=C1N[C@H](C(F)(F)F)C[C@H]1Cc1ccc2nc([C@@H](NC(=O)C3(F)CC3)C(C3CC3)C3CC3)[nH]c2c1` [Compound 68] as the molecule, how does the IC50 read?
The IC50 was greater than 1 µM.

Which IC50 does the source give for `CCn1nccc1C(=O)N[C@H](c1nc2ccc(C(COC)C3C[C@@H](C(F)(F)F)NC3=O)cc2[nH]1)C(C1CC1)C1CC1` (stereo partly shown) [Compound 80] here?
Its IC50 is 0.1 to 1 µM.

`CCn1nccc1C(=O)N[C@H](c1nc2cc(CC3CC(C(F)(F)F)NC3=O)cc(F)c2[nH]1)C(C1CC1)C1CC1` (stereo partly shown) [Compound 42] was tested. Which IC50 did it give?
The IC50 was greater than 1 µM.

How did the IC50 turn out when `CCn1nccc1C(=O)N[C@H](c1nc2cc(C)c(CC3CCNC3=O)cc2[nH]1)C(C1CC1)C1CC1` (stereo partly shown) [Compound 26] was run?
The IC50 was greater than 1 µM.

How did the IC50 turn out when `CCn1nccc1C(=O)N[C@H](c1nc2ccc(CC3CCCNC3=O)cc2[nH]1)[C@H]1CC[C@H](C(F)(F)F)CC1` (stereo partly shown) [Compound 88] was run?
Its IC50 is greater than 1 µM.

With `CCn1nccc1C(=O)N[C@H](c1nc2ccc(C[C@H]3CCNC3=O)cc2[nH]1)C(C1CCC1)C1CCC1` [Compound 64] as the molecule, how does the IC50 read?
Its IC50 is 0.1 to 1 µM.

Which IC50 does the source give for `CCn1nccc1C(=O)N[C@H](c1nc2cc(C[C@@H]3CCNC3=O)ccc2[nH]1)C1CCC(F)(F)CC1` [Compound 8] here?
The IC50 was greater than 1 µM.

How did the IC50 turn out when `CCn1nccc1C(=O)N[C@H](c1nc2c(F)c(CC3CC(C(F)(F)F)NC3=O)ccc2[nH]1)C(C1CC1)C1CC1` (stereo partly shown) [Compound 39] was run?
Its IC50 is greater than 1 µM.

Which IC50 does the source give for `CCn1nccc1C(=O)N[C@H](c1nc2cc(CC3CCC(C(F)(F)F)NC3=O)ccc2[nH]1)C(C1CC1)C1CC1` (stereo partly shown) [Compound 44] here?
The IC50 was greater than 1 µM.

With `CCn1nccc1C(=O)N[C@H](c1nc2cc(CC3CC(C(F)(F)F)NC3=O)cc(F)c2[nH]1)C(C1CC1)C1CC1` (stereo partly shown) [Compound 41] as the molecule, how does the IC50 read?
The IC50 was 0.1 to 1 µM.

How did the IC50 turn out when `CCn1nccc1C(=O)N[C@H](c1nc2ccc(C(C)C3CCCNC3=O)cc2[nH]1)C(C1CC1)C1CC1` (stereo partly shown) [Compound 85] was run?
Its IC50 is greater than 1 µM.

For `CCn1nccc1C(=O)N[C@H](c1nc2cc(C[C@H]3CCNC3=O)ccc2[nH]1)C1CCCCCC1` [Compound 6], which IC50 is on record?
The IC50 was less than 0.1 µM.

Which IC50 does the source give for `CCn1nccc1C(=O)N[C@H](c1nc2ccc(CC3C(=O)NCC3C(F)(F)F)cc2[nH]1)C(C1CC1)C1CC1` (stereo partly shown) [Compound 77] here?
The IC50 was 0.1 to 1 µM.

How did the IC50 turn out when `CCn1nccc1C(=O)N[C@H](c1nc2c(F)c(C[C@@H]3C[C@@H](C(F)(F)F)NC3=O)ccc2[nH]1)C(C1CC1)C1CC1` [Compound 37] was run?
The IC50 was 0.1 to 1 µM.

`CCn1nccc1C(=O)N[C@H](c1nc2c(F)c(CC3CCC(C(F)(F)F)NC3=O)ccc2[nH]1)C(C1CC1)C1CC1` (single isomer, unassigned) [Compound 49] was tested. Which IC50 did it give?
The IC50 was greater than 1 µM.

— US20260226047A1, “BENZIMIDAZOLE AND AZA-BENZIMIDAZOLE BASED IL-17A MODULATORS AND USES THEREOF” (DICE ALPHA, INC., priority 2023, published 2026)
